In ChEMBL document CHEMBL3885861, “Open TG-GATES”:

Species: Rattus norvegicus
Test: Open TG-GATES - Regimen: Daily Repeat
Assay type: toxicity, organism-based, Sprague-Dawley
Set-up: regimen Daily Repeat, gender Male, age 6 weeks
Conditions: in vivo, po, route gavage; for APTT / Bas / Eos / Fbg / Hb / Ht / Lym / MCHC / MCV / Mono / Neu / PT / Plat / RBC / Ret / WBC: tissue Blood; for KIDNEY_L / KIDNEY_R / KIDNEY_TOTAL: tissue Kidney; for LIVER: tissue Liver; for ALP / ALT / AST / BUN / CRE / Ca / Cl / DBIL / GLC / IP / K / LDH / Na / PL / RALB / TBIL / TC / TG / TP / gamma-GTP: tissue Plasma
[1] = 0 mg/kg, 72 h, dose level Control, time 3 day
[2] = 0 mg/kg, […], dose level Control, time 7 day
[3] = 0 mg/kg, […], dose level Control, time 14 day
[4] = 0 mg/kg, […], dose level Control, time 28 day
[5] = 10 mg/kg, 72 h, dose level Low, time 3 day
[6] = 10 mg/kg, […], dose level Low, time 7 day
[7] = 10 mg/kg, […], dose level Low, time 14 day
[8] = 10 mg/kg, […], dose level Low, time 28 day

CS(=O)(=O)Nc1ccc([N+](=O)[O-])cc1Oc1ccccc1 [NIMESULIDE]
TERMINAL_BW [1]: 220.1 g
APTT [1]: 17.3 s
Bas [1]: 0%
Eos [1]: 1%
Fbg [1]: 199.4 mg/dL
Hb [1]: 13.5 g/dL
Ht [1]: 39.9%
Lym [1]: 78%
MCHC [1]: 34%
MCV [1]: 62.8 fL
Mono [1]: 6.2%
Neu [1]: 14.8%
PT [1]: 11.7 s
Plat [1]: 127.5 x10_4/uL
RBC [1]: 635.6 x10_4/ul
Ret [1]: 9.2%
WBC [1]: 97.8 x10_2/uL
KIDNEY_L [1]: 1 g
KIDNEY_R [1]: 1 g
KIDNEY_TOTAL [1]: 2 g
LIVER [1]: 10.6 g
ALP [1]: 996 IU/L
ALT [1]: 36.8 IU/L
AST [1]: 63.6 IU/L
BUN [1]: 17.6 mg/dL
CRE [1]: 0.6 mg/dL
Ca [1]: 10.7 mg/dL
Cl [1]: 105 meq/L
DBIL [1]: 0.064 mg/dL
GLC [1]: 203 mg/dL
IP [1]: 7.5 mg/dL
K [1]: 4.7 meq/L
LDH [1]: 81.6 IU/L
Na [1]: 139.4 meq/L
PL [1]: 132.2 mg/dL
RALB [1]: 4 g/dL
TBIL [1]: 0.3 mg/dL
TC [1]: 69 mg/dL
TG [1]: 72.4 mg/dL
TP [1]: 5.5 g/dL
gamma-GTP [1]: 1.4 IU/L
TERMINAL_BW [2]: 249.3 g
TERMINAL_BW [3]: 309.7 g
TERMINAL_BW [4]: 405 g
APTT [2]: 18.3 s
Bas [2]: 0%
Eos [2]: 1%
Fbg [2]: 220 mg/dL
Hb [2]: 14.2 g/dL
Ht [2]: 41.6%
Lym [2]: 77.2%
MCHC [2]: 34.1%
MCV [2]: 64.8 fL
Mono [2]: 9.4%
Neu [2]: 12.6%
PT [2]: 11.3 s
Plat [2]: 117.6 x10_4/uL
RBC [2]: 642.4 x10_4/ul
Ret [2]: 7.2%
WBC [2]: 134.4 x10_2/uL
APTT [3]: 17.4 s
Bas [3]: 0%
Eos [3]: 1.2%
Fbg [3]: 234.2 mg/dL
Hb [3]: 14.7 g/dL
Ht [3]: 43.2%
Lym [3]: 79%
MCHC [3]: 34%
MCV [3]: 62.7 fL
Mono [3]: 6.2%
Neu [3]: 13.8%
PT [3]: 11.8 s
Plat [3]: 118.2 x10_4/uL
RBC [3]: 689.8 x10_4/ul
Ret [3]: 6.7%
WBC [3]: 118 x10_2/uL
APTT [4]: 17.4 s
Bas [4]: 0%
Eos [4]: 1.4%
Fbg [4]: 213.8 mg/dL
Hb [4]: 15.1 g/dL
Ht [4]: 44.6%
Lym [4]: 80.6%
MCHC [4]: 33.9%
MCV [4]: 58.6 fL
Mono [4]: 5.8%
Neu [4]: 12.4%
PT [4]: 11.7 s
Plat [4]: 126.5 x10_4/uL
RBC [4]: 761 x10_4/ul
Ret [4]: 2.7%
WBC [4]: 120.2 x10_2/uL
KIDNEY_L [2]: 1.1 g
KIDNEY_R [2]: 1.1 g
KIDNEY_TOTAL [2]: 2.2 g
KIDNEY_L [3]: 1.4 g
KIDNEY_R [3]: 1.3 g
KIDNEY_TOTAL [3]: 2.7 g
KIDNEY_L [4]: 1.4 g
KIDNEY_R [4]: 1.4 g
KIDNEY_TOTAL [4]: 2.8 g
LIVER [2]: 11.6 g
LIVER [3]: 14.5 g
LIVER [4]: 16.5 g
ALP [2]: 876.4 IU/L
ALT [2]: 35.4 IU/L
AST [2]: 64.2 IU/L
BUN [2]: 19.2 mg/dL
CRE [2]: 0.6 mg/dL
Ca [2]: 10.5 mg/dL
Cl [2]: 105.2 meq/L
DBIL [2]: 0.03 mg/dL
GLC [2]: 197.4 mg/dL
IP [2]: 7 mg/dL
K [2]: 5 meq/L
LDH [2]: 91.8 IU/L
Na [2]: 140.4 meq/L
PL [2]: 153.8 mg/dL
RALB [2]: 4 g/dL
TBIL [2]: 0.3 mg/dL
TC [2]: 79.2 mg/dL
TG [2]: 108.6 mg/dL
TP [2]: 5.7 g/dL
gamma-GTP [2]: 1.4 IU/L
ALP [3]: 898.6 IU/L
ALT [3]: 28.4 IU/L
AST [3]: 60 IU/L
BUN [3]: 17.4 mg/dL
CRE [3]: 0.5 mg/dL
Ca [3]: 10.7 mg/dL
Cl [3]: 106.4 meq/L
DBIL [3]: 0.002 mg/dL
GLC [3]: 199.4 mg/dL
IP [3]: 7.2 mg/dL
K [3]: 4.7 meq/L
LDH [3]: 54 IU/L
Na [3]: 140.6 meq/L
PL [3]: 141 mg/dL
RALB [3]: 4 g/dL
TBIL [3]: 0.3 mg/dL
TC [3]: 65.4 mg/dL
TG [3]: 124.4 mg/dL
TP [3]: 5.9 g/dL
gamma-GTP [3]: 1 IU/L
ALP [4]: 627.4 IU/L
ALT [4]: 29 IU/L
AST [4]: 61.8 IU/L
BUN [4]: 20.2 mg/dL
CRE [4]: 0.6 mg/dL
Ca [4]: 10.5 mg/dL
Cl [4]: 108.2 meq/L
DBIL [4]: 0.006 mg/dL
GLC [4]: 200 mg/dL
IP [4]: 6.6 mg/dL
K [4]: 4.7 meq/L
LDH [4]: 78 IU/L
Na [4]: 143.8 meq/L
PL [4]: 152 mg/dL
RALB [4]: 4.1 g/dL
TBIL [4]: 0.3 mg/dL
TC [4]: 73.2 mg/dL
TG [4]: 160.4 mg/dL
TP [4]: 6 g/dL
gamma-GTP [4]: 1.8 IU/L
TERMINAL_BW [5]: 219.5 g
APTT [5]: 16.3 s
Bas [5]: 0%
Eos [5]: 1.2%
Fbg [5]: 208.8 mg/dL
Hb [5]: 14 g/dL
Ht [5]: 41.3%
Lym [5]: 74.8%
MCHC [5]: 33.9%
MCV [5]: 63.4 fL
Mono [5]: 6.8%
Neu [5]: 17%
PT [5]: 11.4 s
Plat [5]: 114.4 x10_4/uL
RBC [5]: 651.8 x10_4/ul
Ret [5]: 10%
WBC [5]: 94 x10_2/uL
KIDNEY_L [5]: 1 g
KIDNEY_R [5]: 1 g
KIDNEY_TOTAL [5]: 1.9 g
LIVER [5]: 10.2 g
ALP [5]: 1001.2 IU/L
ALT [5]: 38.2 IU/L
AST [5]: 62.8 IU/L
BUN [5]: 18.8 mg/dL
CRE [5]: 0.6 mg/dL
Ca [5]: 10.8 mg/dL
Cl [5]: 103.6 meq/L
DBIL [5]: 0.056 mg/dL
GLC [5]: 195 mg/dL
IP [5]: 7.7 mg/dL
K [5]: 4.9 meq/L
LDH [5]: 105.6 IU/L
Na [5]: 139.4 meq/L
PL [5]: 145 mg/dL
RALB [5]: 4 g/dL
TBIL [5]: 0.3 mg/dL
TC [5]: 80 mg/dL
TG [5]: 75.8 mg/dL
TP [5]: 5.5 g/dL
gamma-GTP [5]: 1.2 IU/L
TERMINAL_BW [6]: 242.4 g
TERMINAL_BW [7]: 296.6 g
TERMINAL_BW [8]: 395.2 g
APTT [6]: 17.2 s
Bas [6]: 0%
Eos [6]: 1%
Fbg [6]: 220.8 mg/dL
Hb [6]: 14.3 g/dL
Ht [6]: 41.8%
Lym [6]: 75.2%
MCHC [6]: 34.2%
MCV [6]: 61.7 fL
Mono [6]: 8.2%
Neu [6]: 15.4%
PT [6]: 11.2 s
Plat [6]: 129.4 x10_4/uL
RBC [6]: 678.4 x10_4/ul
Ret [6]: 4.9%
WBC [6]: 103.5 x10_2/uL
APTT [7]: 17.9 s
Bas [7]: 0%
Eos [7]: 1%
Fbg [7]: 227.8 mg/dL
Hb [7]: 14.5 g/dL
Ht [7]: 42.4%
Lym [7]: 83.8%
MCHC [7]: 34.3%
MCV [7]: 62.7 fL
Mono [7]: 4.8%
Neu [7]: 10.8%
PT [7]: 11.8 s
Plat [7]: 117.1 x10_4/uL
RBC [7]: 676.2 x10_4/ul
Ret [7]: 5.6%
WBC [7]: 121.2 x10_2/uL
APTT [8]: 18.6 s
Bas [8]: 0%
Eos [8]: 1%
Fbg [8]: 214.2 mg/dL
Hb [8]: 15.2 g/dL
Ht [8]: 45%
Lym [8]: 80.8%
MCHC [8]: 33.9%
MCV [8]: 57.7 fL
Mono [8]: 6.4%
Neu [8]: 11.6%
PT [8]: 11.9 s
Plat [8]: 117.6 x10_4/uL
RBC [8]: 782.6 x10_4/ul
Ret [8]: 2.8%
WBC [8]: 102.3 x10_2/uL
KIDNEY_L [6]: 1.1 g
KIDNEY_R [6]: 1.1 g
KIDNEY_TOTAL [6]: 2.2 g
KIDNEY_L [7]: 1.2 g
KIDNEY_R [7]: 1.2 g
KIDNEY_TOTAL [7]: 2.4 g
KIDNEY_L [8]: 1.4 g
KIDNEY_R [8]: 1.4 g
KIDNEY_TOTAL [8]: 2.8 g
LIVER [6]: 11.6 g
LIVER [7]: 14.2 g
LIVER [8]: 16.7 g
ALP [6]: 890.6 IU/L
ALT [6]: 36.6 IU/L
AST [6]: 64.4 IU/L
BUN [6]: 20 mg/dL
CRE [6]: 0.5 mg/dL
Ca [6]: 10.5 mg/dL
Cl [6]: 105.4 meq/L
DBIL [6]: 0.016 mg/dL
GLC [6]: 200.8 mg/dL
IP [6]: 7.6 mg/dL
K [6]: 4.6 meq/L
LDH [6]: 97 IU/L
Na [6]: 140.4 meq/L
PL [6]: 159.6 mg/dL
RALB [6]: 4.1 g/dL
TBIL [6]: 0.3 mg/dL
TC [6]: 81.4 mg/dL
TG [6]: 97.8 mg/dL
TP [6]: 5.9 g/dL
gamma-GTP [6]: 1.4 IU/L
ALP [7]: 649.2 IU/L
ALT [7]: 30.6 IU/L
AST [7]: 63.6 IU/L
BUN [7]: 21 mg/dL
CRE [7]: 0.6 mg/dL
Ca [7]: 10.6 mg/dL
Cl [7]: 106.4 meq/L
DBIL [7]: 0 mg/dL
GLC [7]: 201.8 mg/dL
IP [7]: 7.1 mg/dL
K [7]: 4.6 meq/L
LDH [7]: 88.6 IU/L
Na [7]: 141 meq/L
PL [7]: 161 mg/dL
RALB [7]: 3.9 g/dL
TBIL [7]: 0.3 mg/dL
TC [7]: 78 mg/dL
TG [7]: 147.6 mg/dL
TP [7]: 5.9 g/dL
gamma-GTP [7]: 1.8 IU/L
ALP [8]: 745.8 IU/L
ALT [8]: 34.6 IU/L
AST [8]: 65.2 IU/L
BUN [8]: 20 mg/dL
CRE [8]: 0.6 mg/dL
Ca [8]: 10.6 mg/dL
Cl [8]: 108.4 meq/L
DBIL [8]: 0.004 mg/dL
GLC [8]: 197 mg/dL
IP [8]: 6.8 mg/dL
K [8]: 4.6 meq/L
LDH [8]: 95.2 IU/L
Na [8]: 144.2 meq/L
PL [8]: 147.2 mg/dL
RALB [8]: 4.1 g/dL
TBIL [8]: 0.3 mg/dL
TC [8]: 65.8 mg/dL
TG [8]: 167 mg/dL
TP [8]: 6.2 g/dL
gamma-GTP [8]: 1.8 IU/L
